One series concerns Rattus norvegicus. The following applies: for LD50: acute, mortality.
For another series, the system named is Colinus virginianus. The note with it: for LD50: acute, oral, mortality.
For the next series, the system named is Chironomus tentans. The note with it: acute, mortality.
The subject of another series is Canidae. The note with it: reproduction developmental; duration: 90 days; Dog Other; mortality.
The next series relates to Cyprinodon variegatus. The note with it: mortality.
For a further series, the system named is Apis mellifera. The note with it: acute, mortality.
The next series relates to Bibionidae. The note with it: chronic/long-term; duration: 28 days.
A further series relates to Mus musculus. The following applies: acute; oral; mortality.

Values after ≈ are worked out from the molar mass of the structure shown.

For `CC(O)c1ccc(C(F)(F)F)nc1` (centres undefined) [1-(6-(Trifluoromethyl)pyridin-3-yl)ethanol], the LD50 worked out at 2000 mg/kg in the series with Rattus norvegicus and 1040 mg/kg in the series on Colinus virginianus.
Regarding `CC(c1ccc(C(F)(F)F)nc1)S(C)(=O)=NC#N` (centres undefined) [Sulfoxaflor], the LC50 in the series on Chironomus tentans (duration: 96 hours) is 0.622 µg/mL (≈ 2.24 µM); in the series with Chironomus tentans (duration: 10 days), 0.119 mg/kg; with Cyprinodon variegatus (acute, duration: 96 hours) it was 266 µg/mL (≈ 959 µM); with Tagia sp. (acute, duration: 14 days, mortality), 0.885 mg/kg; with Neomysis kadiakensis (acute, duration: 96 hours, mortality) it was 0.643 µg/mL (≈ 2.32 µM). For the same compound, the NOAEL in the series with Canidae came out at 6.63 mg/kg-day; in the series with Rattus norvegicus (chronic, duration: 2 years, other), 4.24 mg/kg-day; in the series on Rattus norvegicus (repeat dose other, neurology), 25 mg/kg-day; with Rattus norvegicus (subchronic, duration: 90 days, oral, histopathology: nonneoplastic) it was 6.36 mg/kg-day; with Anas platyrhynchos (reproductive, reproduction) it was 25.9 mg/kg-day; in the series with Colinus virginianus (reproduction developmental, reproduction) it was 84.4 mg/kg-day. In addition, the NOEC in the series on Cyprinodon variegatus (chronic/long-term, duration: 38 days) turned out to be 1.21 mg/L; with Tagia sp. (chronic/long-term, duration: 8 weeks), 0.1 mg/kg; in the series on Neomysis kadiakensis (chronic/long-term, duration: 28 days, reproduction) it was 0.114 mg/L; in the series with Bibionidae it was 0.0384 mg/L. The LD50 is 1000 mg/kg in the series with Rattus norvegicus (oral); above 1050 mg/kg-day in the series on Anas platyrhynchos (short-term, oral, feed, mortality); 0.146 µg/piece in the series on Apis mellifera (duration: 48 hours, oral, unspecified); 0.379 µg/piece in the series with Apis mellifera (duration: 72 hours, dermal); above 1150 mg/kg-day in the series with Colinus virginianus (diet); 676 mg/kg with Colinus virginianus. Further, in the series on Mus musculus, the LD50 was 750 mg/kg.

The NOAEL is the highest tested level that showed no adverse finding.
